Experimental data reported in US20040086949A1, “Method for preparing a ligand presenting assembly (LPA), an LPA and uses thereof” (Statens Serum Institut, priority 1998, published 2004).
Ends that are not written are not given here.

How the values were obtained:
[1] = test system: C-terminal B-cell epitope of OspC; assay: Immunogenicity of LPA-VI in mice, serum Ig ELISA against recombinant OspC and LPA-I; format: in vivo; conditions: five female C57 black mice, 5 μg i.p. on days 0 and 14 with Al(OH)3 and Freund's incomplete adjuvant, sera diluted 200 fold
Procedure: The capability of an LPA according to the present invention to induce a humoral immune response was studied by immunising mice with LPA-VI. Five female C57 black mice (age 6 to 8 weeks) were immunised two times intraperitoneally with a 2-week interval and were bled on days 0, 14, and 28. Each immunisation dose contained. 5 μg of LPA-VI dissolved in 0.25 ml 0.9% NaCl and supplemented with 1 mg Al(OH)3 (Superfos Biosector, Denmark) and 0.25 ml Freund's incomplete adjuvant. The serum samples were diluted 200 fold and then tested by ELISA for Ig reactivity against OspC produced on recombinant form (WO 97/42221) and LPA-I (FIG. 8).
FIG. 8. Mean ELISA titer of sera from five mice immunised with LPA-VI on days 0 and 14. The microdilution plates were coated with LPA-I (diamond) or recombinant OspC (Squares), and the sera were analysed in a 200-fold dilution.

[2] = test system: IgM antibodies in sera from patients with neuroborreliosis; assay: Indirect IgM-ELISA with LPA-I or biotinylated-pepC10 as coated antigen; format: binding, human; conditions: NB sera (n = 97), sera diluted 1/200, 98% specific cut-off
Procedure: The capability of LPA-I according to the present invention to react with sera from patients with neuroborreliosis was evaluated against that of an ELISA based on biotinylated-pepC10, wherein pepC10 is identical to the amino acid sequence of Seq. ID 1.
Preparing plates for the LPA-I-ELISA: Microtiter plates (Maxisorb; Nunc, Roskilde, Denmark) were coated overnight at 4° C. with 0.6 μg/ml of LPA-I diluted in 0.05 M bicarbonate pH 9.6, blocked with 3% (w/v) milk powder in phosphate-buffered saline (PBS) for 1 h, and reacted with sera diluted 1/200 in 1% (w/v) milk powder in PBS containing 0.05% Tween 20 (PBST) and 0.7 M NaCl for 2 h. The secondary antibody was a peroxidase conjugated rabbit anti-human IgM (Dako, Denmark, codes P-215) diluted 1/1000 in 1% (w/v) milk powder in PBST. After 1 h of incubation, bound secondary antibody was quantitated by colouring with o-phenylenediamine and H2O2 in citrate buffer (Sigma, St. Louis, Mo.) for 30 min. Optical density (OD) at 492 nm was determined in a plate reader (EAR 400 AC-SLT, Labinstruments, Austria). Plates were washed extensively with PBST-0.5M NaCl between each incubation step. The 98% specific diagnostic cut-off level was OD of 0.270 for IgM detection.
Preparing plates for the biotinylated-pepC10-ELISA: ELISAs with biotinylated-pepC10, were performed essentially as described above for LPA-I, except that microtiter plates were first coated with streptavidin (2.5 μg/ml) (Zymed, S. Avidinii) in citrate buffer (pH 5) overnight at 4° C., and then incubated with biotinylated pepC10 (0.1 μg/ml) in 1% (w/v) milk powder in PBST-0.37 M NaCl overnight at 4° C.
(i) Sera from 97 Danish patients with neuroborreliosis (NB). All patients had been hospitalised in 1994 ([…] between 4 and 80 years of age; median age, 49). The selection was based on a positive test for B. burgdorferi specific intrathecal antibody synthesis. The diagnosis was further corroborated by the presence of lymphocytic pleocytosis in CSF (median cell count, 124/μl) and one of the following manifestations: lymphocytic meningoradiculitis with typical painful radiculitis, mononeuritis multiplex (Bannwarth's syndrome), radiculomyelitis, monosymptomatic fascialis paresis (all children), subacute lymphocytic meningitis, and chronic progressive encephalomyelitis. Of the 100 patients, 48 recalled a previous EM-like skin lesion. Disease duration, defined as the time from onset of neurological symptoms until diagnostic blood and CSF samples were taken, ranged from 1 week to 26 weeks (median duration, 3 weeks).
Sera from 80 healthy controls were used for determination of the 98%-specific cut-off level in ELISAs.

Row | Substance | induction of antibodies against the C-terminal B-cell epitope of OspC [1] | % of IgM reactive sera (frequency of positive Lyme borreliosis sera) [2] [%] | No. of IgM reactive sera [2]
1 | (HO-ProLysLysProSerGluAlaValValPro-COCH2)2N-Lys(AlaSerAlaAlaAlaGluIleGlyAlaPheAsnTrpGlnGlnGluThrMet-H)2 [LPA-VI] | highly effective in inducing antibodies | – | –
2 | FmocN(CH2CO-ProValValAlaGluSerProLysLysPro-OH)2 [LPA-I] | – | 42.3 | 41
3 | biotinylated-pepC10: biotinylated peptide; pepC10 is identical to the amino acid sequence of Seq. ID 1 (ProValValAlaGluSerProLysLysPro), bound to streptavidin-coated plates (PVVAESPKKP; also: biotinylated, place not given here) [reference compound] | – | 43.3 | 42
